PubChem BioAssay (NCI)
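Exposure lasted 48 hours, with cells grown in 96-well plates and compounds tested at five concentrations. GI50 marks 50% less growth. TGI marks complete inhibition of growth.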

What was measured:
Experiment in all cases: NCI-60 cell line screen, 48 h
786-0 renal = tested on: 786-0 renal
A549 NSCLC = tested on: A549 NSCLC
ACHN renal = tested on: ACHN renal
CAKI-1 renal = tested on: CAKI-1 renal
COLO 205 colon = tested on: COLO 205 colon
EKVX NSCLC = tested on: EKVX NSCLC
HCT-116 colon = tested on: HCT-116 colon
HCT-15 colon = tested on: HCT-15 colon
HL-60(TB) leukemia = tested on: HL-60(TB) leukemia
HOP-62 NSCLC = tested on: HOP-62 NSCLC
HS 578T breast = tested on: HS 578T breast
HT29 colon = tested on: HT29 colon
IGROV1 ovarian = tested on: IGROV1 ovarian
K-562 leukemia = tested on: K-562 leukemia
KM12 colon = tested on: KM12 colon
M14 melanoma = tested on: M14 melanoma
MALME-3M melanoma = tested on: MALME-3M melanoma
MCF7 breast = tested on: MCF7 breast
MDA-MB-231 breast = tested on: MDA-MB-231 breast
MDA-MB-435 = tested on: MDA-MB-435
NCI-H226 lung = tested on: NCI-H226 lung
NCI-H23 lung = tested on: NCI-H23 lung
NCI-H460 lung = tested on: NCI-H460 lung
NCI/ADR-RES ovarian = tested on: NCI/ADR-RES ovarian
OVCAR-3 ovarian = tested on: OVCAR-3 ovarian
OVCAR-5 ovarian = tested on: OVCAR-5 ovarian
SF-295 CNS = tested on: SF-295 CNS
SK-MEL-28 melanoma = tested on: SK-MEL-28 melanoma
SN12C renal = tested on: SN12C renal
SNB-19 CNS = tested on: SNB-19 CNS
SNB-75 CNS = tested on: SNB-75 CNS
SW-620 colon = tested on: SW-620 colon
T-47D breast = tested on: T-47D breast
TK-10 renal = tested on: TK-10 renal
U251 CNS = tested on: U251 CNS
UACC-257 melanoma = tested on: UACC-257 melanoma
UACC-62 melanoma = tested on: UACC-62 melanoma
UO-31 renal = tested on: UO-31 renal
CCRF-CEM leukemia = tested on: CCRF-CEM leukemia
MOLT-4 leukemia = tested on: MOLT-4 leukemia
RPMI-8226 leukemia = tested on: RPMI-8226 leukemia
SF-268 CNS = tested on: SF-268 CNS
SF-539 CNS = tested on: SF-539 CNS
SR leukemia = tested on: SR leukemia
A498 renal = tested on: A498 renal
BT-549 breast = tested on: BT-549 breast
DU-145 prostate = tested on: DU-145 prostate
LOX IMVI melanoma = tested on: LOX IMVI melanoma
NCI-H522 lung = tested on: NCI-H522 lung
OVCAR-8 ovarian = tested on: OVCAR-8 ovarian
PC-3 prostate = tested on: PC-3 prostate
RXF 393 renal = tested on: RXF 393 renal
SK-MEL-2 melanoma = tested on: SK-MEL-2 melanoma
SK-MEL-5 melanoma = tested on: SK-MEL-5 melanoma

**Q.** COc1cccc2c1C(=O)c1c(O)c3c(c(O)c1C2=O)C[C@@](O)(/C(C)=N/NC(=O)c1ccc(Cl)c(Cl)c1)C[C@@H]3OC1CC(N)C(O)C(C)O1 (some centres not stated) was tested. Which TGI (786-0 renal) did it give?
**A.** 2100 nM

**Q.** And the TGI (A549 NSCLC)?
**A.** 2680 nM

**Q.** What about the TGI (ACHN renal) of the same compound?
**A.** 256 nM

**Q.** And the TGI (CAKI-1 renal)?
**A.** 562 nM

**Q.** What about the TGI (COLO 205 colon) of the same compound?
**A.** 1500 nM

**Q.** And the TGI (EKVX NSCLC)?
**A.** 7.4 µM

**Q.** And the TGI (HCT-116 colon)?
**A.** 1040 nM

**Q.** And the TGI (HCT-15 colon)?
**A.** 1160 nM

**Q.** What about the TGI (HL-60(TB) leukemia) of the same compound?
**A.** 397 nM

**Q.** What about the TGI (HOP-62 NSCLC) of the same compound?
**A.** 1280 nM

**Q.** What about the TGI (HS 578T breast) of the same compound?
**A.** 3.18 µM

**Q.** What about the TGI (HT29 colon) of the same compound?
**A.** 379 nM

**Q.** What about the TGI (IGROV1 ovarian) of the same compound?
**A.** > 100 µM

**Q.** What about the TGI (K-562 leukemia) of the same compound?
**A.** 1.06 µM

**Q.** And the TGI (KM12 colon)?
**A.** 624 nM

**Q.** And the TGI (M14 melanoma)?
**A.** 1200 nM

**Q.** What about the TGI (MALME-3M melanoma) of the same compound?
**A.** 83.8 nM

**Q.** What about the TGI (MCF7 breast) of the same compound?
**A.** > 100 µM

**Q.** And the TGI (MDA-MB-231 breast)?
**A.** 2510 nM

**Q.** What about the TGI (MDA-MB-435) of the same compound?
**A.** 1110 nM

**Q.** And the TGI (NCI-H226 lung)?
**A.** 231 nM

**Q.** What about the TGI (NCI-H23 lung) of the same compound?
**A.** 618 nM

**Q.** And the TGI (NCI-H460 lung)?
**A.** > 100 µM

**Q.** What about the TGI (NCI/ADR-RES ovarian) of the same compound?
**A.** 2.84 µM

**Q.** And the TGI (OVCAR-3 ovarian)?
**A.** 934 nM

**Q.** And the TGI (OVCAR-5 ovarian)?
**A.** 0.686 µM

**Q.** What about the TGI (SF-295 CNS) of the same compound?
**A.** 527 nM

**Q.** And the TGI (SK-MEL-28 melanoma)?
**A.** 274 nM

**Q.** And the TGI (SN12C renal)?
**A.** 877 nM

**Q.** What about the TGI (SNB-19 CNS) of the same compound?
**A.** 445 nM

**Q.** And the TGI (SNB-75 CNS)?
**A.** 2.02 µM

**Q.** What about the TGI (SW-620 colon) of the same compound?
**A.** 1350 nM

**Q.** What about the TGI (T-47D breast) of the same compound?
**A.** > 100 µM

**Q.** What about the TGI (TK-10 renal) of the same compound?
**A.** 1830 nM

**Q.** And the TGI (U251 CNS)?
**A.** 363 nM

**Q.** What about the TGI (UACC-257 melanoma) of the same compound?
**A.** 1050 nM

**Q.** And the TGI (UACC-62 melanoma)?
**A.** 340 nM

**Q.** And the TGI (UO-31 renal)?
**A.** > 100 µM

**Q.** How did the TGI (CCRF-CEM leukemia) turn out when Cc1ccc(S(=O)(=O)N2CCN3CCN(CCN(C)CCN4CCN(CC4)CCN(S(=O)(=O)c4ccc(C)cc4)CCN(S(=O)(=O)c4ccc(C)cc4)CCN(S(=O)(=O)c4ccc(C)cc4)CCN(S(=O)(=O)c4ccc(C)cc4)CCN4CCN(CCN(C)CCN5CCN(CC5)CCN(S(=O)(=O)c5ccc(C)cc5)CCN(S(=O)(=O)c5ccc(C)cc5)CCN(S(=O)(=O)c5ccc(C)cc5)CC2)CC4)CC3)cc1 was run?
**A.** 972 nM

**Q.** And the TGI (EKVX NSCLC)?
**A.** 5.82 µM

**Q.** What about the TGI (HCT-15 colon) of the same compound?
**A.** 2820 nM

**Q.** And the TGI (HL-60(TB) leukemia)?
**A.** 2700 nM

**Q.** What about the TGI (K-562 leukemia) of the same compound?
**A.** 11 µM

**Q.** What about the TGI (MCF7 breast) of the same compound?
**A.** 3.3 µM

**Q.** And the TGI (MOLT-4 leukemia)?
**A.** 2910 nM

**Q.** What about the TGI (NCI/ADR-RES ovarian) of the same compound?
**A.** > 100 µM

**Q.** What about the TGI (OVCAR-5 ovarian) of the same compound?
**A.** 3.42 µM

**Q.** What about the TGI (RPMI-8226 leukemia) of the same compound?
**A.** 11.9 µM

**Q.** And the TGI (SF-268 CNS)?
**A.** 6.62 µM

**Q.** And the TGI (SF-539 CNS)?
**A.** 4.45 µM

**Q.** What about the TGI (SNB-75 CNS) of the same compound?
**A.** 5.58 µM

**Q.** What about the TGI (SR leukemia) of the same compound?
**A.** 10.6 µM

**Q.** Which results are given for Cc1sc(/N=C2/NC(=O)CS2)nc1-c1nc(/N=C2/NC(=O)CS2)sc1C?
**A.** GI50 (786-0 renal): > 50 µM; TGI (786-0 renal): > 50000 nM; GI50 (A498 renal): 47.1 µM; TGI (A498 renal): > 50 µM; GI50 (A549 NSCLC): > 50 µM; TGI (A549 NSCLC): > 50000 nM; GI50 (ACHN renal): > 50 µM; TGI (ACHN renal): > 50000 nM; GI50 (BT-549 breast): > 50 µM; TGI (BT-549 breast): > 50 µM; GI50 (CAKI-1 renal): > 50 µM; TGI (CAKI-1 renal): > 50000 nM; GI50 (COLO 205 colon): > 50 µM; TGI (COLO 205 colon): > 50000 nM; GI50 (DU-145 prostate): > 50 µM; TGI (DU-145 prostate): > 50 µM; GI50 (EKVX NSCLC): 1330 nM; TGI (EKVX NSCLC): > 50 µM; GI50 (HCT-116 colon): 15.7 µM; TGI (HCT-116 colon): > 50000 nM; GI50 (HCT-15 colon): > 50 µM; TGI (HCT-15 colon): > 50000 nM; GI50 (HL-60(TB) leukemia): > 50 µM; TGI (HL-60(TB) leukemia): > 50000 nM; GI50 (HOP-62 NSCLC): 35.2 µM; TGI (HOP-62 NSCLC): > 50000 nM; GI50 (HS 578T breast): 2170 nM; TGI (HS 578T breast): 36.3 µM; GI50 (HT29 colon): 32.2 µM; TGI (HT29 colon): > 50000 nM; GI50 (IGROV1 ovarian): > 50 µM; TGI (IGROV1 ovarian): > 50 µM; GI50 (K-562 leukemia): 26.8 µM; TGI (K-562 leukemia): > 50 µM; GI50 (KM12 colon): 28.9 µM; TGI (KM12 colon): > 50000 nM; GI50 (LOX IMVI melanoma): > 50 µM; TGI (LOX IMVI melanoma): > 50 µM; GI50 (MCF7 breast): 19.7 µM; TGI (MCF7 breast): > 50 µM; GI50 (MDA-MB-231 breast): > 50 µM; TGI (MDA-MB-231 breast): > 50000 nM; GI50 (MDA-MB-435): > 50 µM; TGI (MDA-MB-435): > 50000 nM; GI50 (MOLT-4 leukemia): 19.9 µM; TGI (MOLT-4 leukemia): > 50000 nM; GI50 (NCI-H226 lung): > 50 µM; TGI (NCI-H226 lung): > 50000 nM; GI50 (NCI-H23 lung): > 50 µM; TGI (NCI-H23 lung): > 50000 nM; GI50 (NCI-H460 lung): 23.4 µM; TGI (NCI-H460 lung): > 50 µM; GI50 (NCI-H522 lung): > 50 µM; TGI (NCI-H522 lung): > 50 µM; GI50 (NCI/ADR-RES ovarian): 21.2 µM; TGI (NCI/ADR-RES ovarian): > 50 µM; GI50 (OVCAR-3 ovarian): > 50 µM; TGI (OVCAR-3 ovarian): > 50000 nM; GI50 (OVCAR-5 ovarian): > 50 µM; TGI (OVCAR-5 ovarian): > 50 µM; GI50 (OVCAR-8 ovarian): > 50 µM; TGI (OVCAR-8 ovarian): > 50 µM; GI50 (PC-3 prostate): 16.8 µM; TGI (PC-3 prostate): > 50 µM; GI50 (RPMI-8226 leukemia): 9.59 µM; TGI (RPMI-8226 leukemia): 49.1 µM; GI50 (RXF 393 renal): > 50 µM; TGI (RXF 393 renal): > 50 µM; GI50 (SF-268 CNS): 36.4 µM; TGI (SF-268 CNS): > 50 µM; GI50 (SF-295 CNS): > 50 µM; TGI (SF-295 CNS): > 50000 nM; GI50 (SF-539 CNS): > 50 µM; TGI (SF-539 CNS): > 50 µM; GI50 (SK-MEL-2 melanoma): > 50 µM; TGI (SK-MEL-2 melanoma): > 50 µM; GI50 (SK-MEL-28 melanoma): 26.7 µM; TGI (SK-MEL-28 melanoma): > 50000 nM; GI50 (SK-MEL-5 melanoma): 31.2 µM; TGI (SK-MEL-5 melanoma): > 50 µM; GI50 (SN12C renal): > 50 µM; TGI (SN12C renal): > 50000 nM; GI50 (SNB-19 CNS): > 50 µM; TGI (SNB-19 CNS): > 50000 nM; GI50 (SNB-75 CNS): > 50 µM; TGI (SNB-75 CNS): > 50 µM; GI50 (SR leukemia): 24.9 µM; TGI (SR leukemia): > 50 µM; GI50 (SW-620 colon): > 50 µM; TGI (SW-620 colon): > 50000 nM; GI50 (TK-10 renal): > 50 µM; TGI (TK-10 renal): > 50000 nM; GI50 (U251 CNS): > 50 µM; TGI (U251 CNS): > 50000 nM; GI50 (UACC-257 melanoma): > 50 µM; TGI (UACC-257 melanoma): > 50000 nM; GI50 (UACC-62 melanoma): 15.9 µM; TGI (UACC-62 melanoma): > 50000 nM; GI50 (UO-31 renal): > 50 µM; TGI (UO-31 renal): > 50 µM
